Numbers after ± are expanded uncertainties.
Details: for mass density: Vibrating tube method

FC(F)=C(F)C(F)(F)F [hexafluoropropene]
Details	mass density [kg/m3]	vapor or sublimation pressure [kPa]
283.17 K, 6464.6 kPa, Liquid	1420.83 ± 1.4	–
283.17 K, 6531.5 kPa, Liquid	1421.22 ± 1.5	–
283.17 K, 6599.8 kPa, Liquid	1421.62 ± 1.5	–
283.17 K, 6668.2 kPa, Liquid	1422.01 ± 1.5	–
283.17 K, 6734.8 kPa, Liquid	1422.36 ± 1.5	–
283.17 K, 6802 kPa, Liquid	1422.82 ± 1.5	–
283.17 K, 6878.8 kPa, Liquid	1423.17 ± 1.5	–
283.17 K, 6945.1 kPa, Liquid	1423.6 ± 1.5	–
283.17 K, 7018.8 kPa, Liquid	1423.92 ± 1.5	–
283.17 K, 7085.3 kPa, Liquid	1424.29 ± 1.5	–
283.17 K, 7154.4 kPa, Liquid	1424.62 ± 1.5	–
283.17 K, 7220.3 kPa, Liquid	1425.09 ± 1.5	–
283.17 K, 7293 kPa, Liquid	1425.48 ± 1.5	–
283.17 K, 7359.6 kPa, Liquid	1425.9 ± 1.5	–
283.17 K, 7428.2 kPa, Liquid	1426.22 ± 1.5	–
283.17 K, 7493.3 kPa, Liquid	1426.61 ± 1.5	–
283.17 K, 7562.9 kPa, Liquid	1426.95 ± 1.5	–
283.17 K, 7634.7 kPa, Liquid	1427.34 ± 1.5	–
283.17 K, 7780.3 kPa, Liquid	1428.05 ± 1.5	–
283.17 K, 7854.7 kPa, Liquid	1428.44 ± 1.5	–
283.17 K, 7922.9 kPa, Liquid	1428.82 ± 1.5	–
283.17 K, 7991.9 kPa, Liquid	1429.21 ± 1.5	–
283.17 K, 8053 kPa, Liquid	1429.55 ± 1.5	–
283.17 K, 8093.3 kPa, Liquid	1429.79 ± 1.5	–
283.17 K, 8134.7 kPa, Liquid	1429.94 ± 1.5	–
283.17 K, 8175.7 kPa, Liquid	1430.23 ± 1.5	–
283.17 K, 8222.2 kPa, Liquid	1430.51 ± 1.5	–
283.17 K, 8262.6 kPa, Liquid	1430.66 ± 1.5	–
283.17 K, 8310.9 kPa, Liquid	1430.87 ± 1.5	–
283.17 K, 8353.2 kPa, Liquid	1431.08 ± 1.5	–
283.17 K, 8393.4 kPa, Liquid	1431.32 ± 1.5	–
283.17 K, 8434 kPa, Liquid	1431.55 ± 1.5	–
283.17 K, 8474.2 kPa, Liquid	1431.73 ± 1.5	–
283.17 K, 8517.4 kPa, Liquid	1432.02 ± 1.5	–
283.17 K, 8563.4 kPa, Liquid	1432.23 ± 1.5	–
283.17 K, 8609.7 kPa, Liquid	1432.53 ± 1.5	–
283.17 K, 8651.7 kPa, Liquid	1432.69 ± 1.5	–
283.17 K, 8693.8 kPa, Liquid	1432.88 ± 1.5	–
283.17 K, 8735.7 kPa, Liquid	1433.12 ± 1.5	–
283.17 K, 8779.9 kPa, Liquid	1433.38 ± 1.5	–
283.17 K, 8821.1 kPa, Liquid	1433.52 ± 1.5	–
283.17 K, 8871.9 kPa, Liquid	1433.93 ± 1.5	–
283.17 K, 8912.3 kPa, Liquid	1434 ± 1.5	–
283.17 K, 8953.6 kPa, Liquid	1434.33 ± 1.5	–
283.17 K, 8996.5 kPa, Liquid	1434.45 ± 1.5	–
283.17 K, 9044.1 kPa, Liquid	1434.75 ± 1.5	–
283.17 K, 9090.4 kPa, Liquid	1435.02 ± 1.5	–
283.17 K, 9132.2 kPa, Liquid	1435.25 ± 1.5	–
283.17 K, 9176.2 kPa, Liquid	1435.35 ± 1.5	–
283.17 K, 9217 kPa, Liquid	1435.66 ± 1.5	–
283.17 K, 9261 kPa, Liquid	1435.85 ± 1.5	–
283.17 K, 9303.9 kPa, Liquid	1436.08 ± 1.5	–
283.17 K, 9347.1 kPa, Liquid	1436.32 ± 1.5	–
283.17 K, 9392.3 kPa, Liquid	1436.51 ± 1.5	–
283.17 K, 9439 kPa, Liquid	1436.78 ± 1.5	–
283.17 K, 9480.9 kPa, Liquid	1436.91 ± 1.5	–
283.17 K, 9522.3 kPa, Liquid	1437.19 ± 1.5	–
283.17 K, 9569.5 kPa, Liquid	1437.37 ± 1.5	–
283.17 K, 9612.2 kPa, Liquid	1437.57 ± 1.5	–
283.17 K, 9656.4 kPa, Liquid	1437.81 ± 1.5	–
283.17 K, 9696.9 kPa, Liquid	1438.08 ± 1.5	–
283.17 K, 9737.5 kPa, Liquid	1438.29 ± 1.5	–
283.17 K, 9778 kPa, Liquid	1438.42 ± 1.5	–
283.17 K, 9820 kPa, Liquid	1438.63 ± 1.5	–
283.17 K, 9860.9 kPa, Liquid	1438.96 ± 1.5	–
283.17 K, 9908.7 kPa, Liquid	1439.08 ± 1.5	–
283.17 K, 9991.1 kPa, Liquid	1439.48 ± 1.5	–
283.23 K, Liquid, Closed cell (Static) method	–	459 ± 1.3
283.24 K, 3.6 kPa, Fluid (supercritical or subcritical phases)	0.14 ± 0.03	–
283.24 K, 4 kPa, Fluid (supercritical or subcritical phases)	0.18 ± 0.03	–
283.24 K, 4.5 kPa, Fluid (supercritical or subcritical phases)	0.18 ± 0.03	–
283.24 K, 5.1 kPa, Fluid (supercritical or subcritical phases)	0.27 ± 0.03	–
283.24 K, 6 kPa, Fluid (supercritical or subcritical phases)	0.3 ± 0.03	–
283.24 K, 7.2 kPa, Fluid (supercritical or subcritical phases)	0.31 ± 0.03	–
283.24 K, 8.2 kPa, Fluid (supercritical or subcritical phases)	0.4 ± 0.03	–
283.24 K, 9.1 kPa, Fluid (supercritical or subcritical phases)	0.47 ± 0.03	–
283.24 K, 9.8 kPa, Fluid (supercritical or subcritical phases)	0.52 ± 0.03	–
283.24 K, 10.8 kPa, Fluid (supercritical or subcritical phases)	0.56 ± 0.03	–
283.24 K, 11.8 kPa, Fluid (supercritical or subcritical phases)	0.65 ± 0.03	–
283.24 K, 12.6 kPa, Fluid (supercritical or subcritical phases)	0.7 ± 0.03	–
283.24 K, 13.4 kPa, Fluid (supercritical or subcritical phases)	0.85 ± 0.03	–
283.24 K, 14.4 kPa, Fluid (supercritical or subcritical phases)	0.85 ± 0.03	–
283.24 K, 15.2 kPa, Fluid (supercritical or subcritical phases)	0.87 ± 0.03	–
283.24 K, 16 kPa, Fluid (supercritical or subcritical phases)	0.88 ± 0.03	–
283.24 K, 17 kPa, Fluid (supercritical or subcritical phases)	0.98 ± 0.03	–
283.24 K, 18.1 kPa, Fluid (supercritical or subcritical phases)	1.01 ± 0.03	–
283.24 K, 19.2 kPa, Fluid (supercritical or subcritical phases)	1.12 ± 0.03	–
283.24 K, 20.3 kPa, Fluid (supercritical or subcritical phases)	1.19 ± 0.03	–
283.24 K, 21.5 kPa, Fluid (supercritical or subcritical phases)	1.25 ± 0.03	–
283.24 K, 22.7 kPa, Fluid (supercritical or subcritical phases)	1.31 ± 0.03	–
283.24 K, 23.9 kPa, Fluid (supercritical or subcritical phases)	1.47 ± 0.03	–
283.24 K, 25.1 kPa, Fluid (supercritical or subcritical phases)	1.47 ± 0.03	–
283.24 K, 26.3 kPa, Fluid (supercritical or subcritical phases)	1.57 ± 0.03	–
283.24 K, 27.6 kPa, Fluid (supercritical or subcritical phases)	1.66 ± 0.03	–
283.24 K, 28.8 kPa, Fluid (supercritical or subcritical phases)	1.74 ± 0.03	–
283.24 K, 30 kPa, Fluid (supercritical or subcritical phases)	1.8 ± 0.03	–
283.24 K, 31.2 kPa, Fluid (supercritical or subcritical phases)	1.87 ± 0.03	–
283.24 K, 32.6 kPa, Fluid (supercritical or subcritical phases)	1.92 ± 0.03	–
283.24 K, 33.8 kPa, Fluid (supercritical or subcritical phases)	2.04 ± 0.03	–
283.24 K, 35.1 kPa, Fluid (supercritical or subcritical phases)	2.16 ± 0.03	–
283.24 K, 36.3 kPa, Fluid (supercritical or subcritical phases)	2.23 ± 0.03	–
283.24 K, 37.6 kPa, Fluid (supercritical or subcritical phases)	2.25 ± 0.03	–
283.24 K, 38.8 kPa, Fluid (supercritical or subcritical phases)	2.33 ± 0.03	–
283.24 K, 40.1 kPa, Fluid (supercritical or subcritical phases)	2.39 ± 0.03	–
283.24 K, 41.4 kPa, Fluid (supercritical or subcritical phases)	2.51 ± 0.03	–
283.24 K, 42.6 kPa, Fluid (supercritical or subcritical phases)	2.65 ± 0.03	–
283.24 K, 43.9 kPa, Fluid (supercritical or subcritical phases)	2.74 ± 0.03	–
283.24 K, 45.1 kPa, Fluid (supercritical or subcritical phases)	2.76 ± 0.03	–
283.24 K, 46.4 kPa, Fluid (supercritical or subcritical phases)	2.84 ± 0.03	–
283.24 K, 47.7 kPa, Fluid (supercritical or subcritical phases)	2.93 ± 0.03	–
283.24 K, 49 kPa, Fluid (supercritical or subcritical phases)	3.04 ± 0.03	–
283.24 K, 50.2 kPa, Fluid (supercritical or subcritical phases)	3.09 ± 0.03	–
283.24 K, 52.8 kPa, Fluid (supercritical or subcritical phases)	3.28 ± 0.03	–
283.24 K, 55.4 kPa, Fluid (supercritical or subcritical phases)	3.44 ± 0.03	–
283.24 K, 58.1 kPa, Fluid (supercritical or subcritical phases)	3.61 ± 0.03	–
283.24 K, 60.8 kPa, Fluid (supercritical or subcritical phases)	3.81 ± 0.03	–
283.24 K, 63.5 kPa, Fluid (supercritical or subcritical phases)	3.98 ± 0.03	–
283.24 K, 69.3 kPa, Fluid (supercritical or subcritical phases)	4.38 ± 0.03	–
283.24 K, 72.2 kPa, Fluid (supercritical or subcritical phases)	4.52 ± 0.03	–
283.24 K, 75.2 kPa, Fluid (supercritical or subcritical phases)	4.75 ± 0.03	–
283.24 K, 78.1 kPa, Fluid (supercritical or subcritical phases)	4.95 ± 0.03	–
283.24 K, 81.2 kPa, Fluid (supercritical or subcritical phases)	5.2 ± 0.03	–
283.24 K, 84.2 kPa, Fluid (supercritical or subcritical phases)	5.34 ± 0.03	–
283.24 K, 87.2 kPa, Fluid (supercritical or subcritical phases)	5.58 ± 0.03	–
283.24 K, 90.3 kPa, Fluid (supercritical or subcritical phases)	5.77 ± 0.03	–
283.24 K, 93.4 kPa, Fluid (supercritical or subcritical phases)	6 ± 0.03	–
283.24 K, 96.5 kPa, Fluid (supercritical or subcritical phases)	6.19 ± 0.03	–
283.24 K, 99.6 kPa, Fluid (supercritical or subcritical phases)	6.44 ± 0.03	–
283.24 K, 102 kPa, Fluid (supercritical or subcritical phases)	6.55 ± 0.03	–
283.24 K, 104.4 kPa, Fluid (supercritical or subcritical phases)	6.69 ± 0.03	–
283.24 K, 106.7 kPa, Fluid (supercritical or subcritical phases)	6.88 ± 0.03	–
283.24 K, 109.2 kPa, Fluid (supercritical or subcritical phases)	7.05 ± 0.03	–
283.24 K, 111.6 kPa, Fluid (supercritical or subcritical phases)	7.23 ± 0.03	–

From the NIST ThermoML archive (doi:10.1021/je900596d)
